Assay results published in PMC4204886 (Biochemistry, 2014).

Tests used:
B. subtilis PBP4a = B. subtilis PBP4a (Bacillus subtilis, UniProt P39844); experiment: PBP4a inhibition in solution; assay type: biochemical
[1] = target: class A SHV-1 β-lactamase (Klebsiella pneumoniae, UniProt P0AD64); experiment: SHV-1 β-lactamase inhibition; assay type: biochemical; conditions: even at 1 mM concentrations
TEM-1 β-lactamase = TEM-1 β-lactamase (Escherichia coli, UniProt P62593, Q37K); experiment: TEM-1 β-lactamase inhibition; assay type: biochemical; conditions: even at 1 mM concentrations
[2] = target: class A TEM-2 β-lactamase (Escherichia coli, UniProt P62593, Q37K); assay type: biochemical, E. coli W3310
E. coli PBP4 = E. coli PBP4 (Escherichia coli, UniProt P24228); experiment: Membrane-bound PBP inhibition, Bocillin Fl competition gel; assay type: binding; conditions: gel experiments, E. coli membranes, 1 h preincubation, Bocillin Fl 20 μM
E. coli PBP2 = E. coli PBP2 (Escherichia coli, UniProt P0AD65); experiment: as above; assay type: binding; conditions: gel experiments, E. coli membranes, 1 h preincubation, Bocillin Fl 20 μM
E. coli PBP5 = E. coli PBP5 (Escherichia coli, UniProt P0AEB2); experiment: as above; assay type: binding; conditions: gel experiments, E. coli membranes, 1 h preincubation, Bocillin Fl 20 μM
AmpC β-lactamase = AmpC β-lactamase (Escherichia coli, UniProt P00811); experiment: AmpC β-lactamase inhibition, steady-state competition with cephalothin; assay type: biochemical
[3] = target: Actinomadura R39 DD-peptidase (Actinomadura sp., UniProt P39045); experiment: R39 DD-peptidase inhibition in solution; assay type: biochemical
[4] = target: Streptomyces R61 DD-peptidase (Streptomyces sp., UniProt P15555); experiment: R61 DD-peptidase inhibition in solution; assay type: biochemical
E. coli PBP3 = E. coli PBP3 (Escherichia coli, UniProt P0AD68); experiment: Membrane-bound PBP inhibition, Bocillin Fl competition gel; assay type: binding; conditions: gel experiments, E. coli membranes, 1 h preincubation, Bocillin Fl 20 μM
class C P99 β-lactamase [5] = target: T1, class C P99 β-lactamase (Enterobacter cloacae, UniProt P05364); experiment: P99 β-lactamase inhibition, steady-state competition with cephalothin; assay type: biochemical
[6] = target: class A Staphylococcus aureus PC1 β-lactamase (Staphylococcus aureus, UniProt P00807); experiment: PC1 β-lactamase inhibition; assay type: biochemical
E. coli PBP1a/1b = experiment: Membrane-bound PBP inhibition, Bocillin Fl competition gel; assay type: binding; conditions: gel experiments, E. coli membranes, 1 h preincubation, Bocillin Fl 20 μM
[7] = tested on: CC(=O)OCC1=C(C(=O)O)N2C(=O)[C@@H](NC(=O)Cc3cccs3)[C@H]2SC1; experiment: AmpC β-lactamase inhibition, steady-state competition with cephalothin; assay type: biochemical; conditions: pH 7.5; 25.0 °C
class A BCI β-lactamase = conditions: cited from earlier work
[8] = tested on: Pseudomonas class C β-lactamase; conditions: cited from earlier work
class C P99 β-lactamase [9] = target: T1, class C P99 β-lactamase; conditions: read-out: Km of the substrate; P99 enzyme; 20 mM MOPS pH 7.50, 25 °C; cited from earlier work

CC1(C)SC(C(NC(=O)Cc2ccccc2)B(O)O)NC1C(=O)O (centres unmarked) [compound 12, 2-[1-(dihydroxyboranyl)(2-phenylacetamido)methyl]-5,5-dimethyl-1,3-thiazolidine-4-carboxylic acid]
inhibition of B. subtilis PBP4a (B. subtilis PBP4a): no inhibition | inhibition of SHV-1 β-lactamase [1]: Neither the TEM-1, SHV-1, nor PCI β-lactamases were inhibited | inhibition of TEM-1 β-lactamase (TEM-1 β-lactamase): Neither the TEM-1, SHV-1, nor PCI β-lactamases were inhibited | Ki ([2]; TEM-2 β-lactamase, NI = no inhibition at 1.0 mM): NI ^b | inhibition of TEM-2 enzyme over time ([2]; in 24 h): no inhibition | inhibition of E. coli PBP4 (E. coli PBP4): did not inhibit | inhibition of E. coli PBP2 (E. coli PBP2): did not inhibit | inhibition of E. coli PBP5 (E. coli PBP5): did not inhibit | Ki (AmpC β-lactamase): 1300 ± 400 nM | Ki ([3]; R39 DD-peptidase, NI = no inhibition at 0.10 mM): NI ^c | inhibition of Actinomadura R39 DD-peptidase ([3]; in solution): no inhibition | inhibition of Streptomyces R61 DD-peptidase [4]: no inhibition | inhibition of E. coli PBP3 (E. coli PBP3): did not inhibit | Ki (class C P99 β-lactamase [5]): 950 ± 110 nM | Ki ([6]; PCI β-lactamase, NI = no inhibition at 1.0 mM): NI ^b | inhibition of PCI β-lactamase ([6]; even at 1 mM concentrations): Neither the TEM-1, SHV-1, nor PCI β-lactamases were inhibited | inhibition of E. coli PBP1a/1b (E. coli PBP1a/1b): did not inhibit

AmpC β-lactamase (Escherichia coli K-12)
Km [7]: 13.8 µM

Methyl penicilloate [compound 28, reference compound]
substrate / covalent inhibitor activity (class A BCI β-lactamase): neither a substrate nor a covalent inhibitor | substrate / covalent inhibitor activity [2]: neither a substrate nor a covalent inhibitor | substrate activity [8]: substrate | substrate activity (class C P99 β-lactamase [5]; P99 β-lactamase, see Supporting Information): substrate

CC(=O)OCC1=C(C(=O)O)N2C(=O)[C@@H](NC(=O)Cc3cccs3)[C@H]2SC1 [cephalothin]
Km (class C P99 β-lactamase [9]): 9 µM
